# In patent US7781432B2 (Gruenenthal GmbH, priority 2004, dated 2010):
# Molecular target: T1, Nucleoside Transporter (Homo sapiens, UniProt Q99808)
# T1 sequence (Q99808 1-456): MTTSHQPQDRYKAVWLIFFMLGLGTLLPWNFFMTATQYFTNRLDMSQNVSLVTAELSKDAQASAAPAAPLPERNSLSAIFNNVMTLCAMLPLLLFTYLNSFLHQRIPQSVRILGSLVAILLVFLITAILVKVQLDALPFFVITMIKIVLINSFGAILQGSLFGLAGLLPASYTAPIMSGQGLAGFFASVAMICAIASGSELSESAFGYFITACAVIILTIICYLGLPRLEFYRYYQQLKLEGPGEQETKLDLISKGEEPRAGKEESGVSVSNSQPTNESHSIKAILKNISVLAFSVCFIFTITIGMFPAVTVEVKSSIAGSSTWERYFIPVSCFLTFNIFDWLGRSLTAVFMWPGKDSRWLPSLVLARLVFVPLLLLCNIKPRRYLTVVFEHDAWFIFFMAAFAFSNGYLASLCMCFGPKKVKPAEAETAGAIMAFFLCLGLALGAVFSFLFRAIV
# Experiment: biochemical
# Conditions: not given
row,Ki [nM],Compound
1,122,"c1ccc(Cn2c(N3CCOCC3)nc3c(SCc4ccc5nonc5c4)ncnc32)cc1 [Example 19, 6-(benzo[c][1,2,5]oxadiazole-5-ylmethylsulfanyl)-9-benzyl-8-morpholin-4-yl-9H-purine]"
2,1390,"c1ccc(CSc2ncnc3c2nc(N2CCOCC2)n3Cc2ccccc2)cc1 [Example 20, 9-benzyl-6-benzylsulfanyl-8-morpholin-4-yl-9H-purine]"
3,514,"c1ccc(CSc2ncnc3c2nc(N2CCCC2)n3Cc2ccccc2)cc1 [Example 21, 9-benzyl-6-benzylsulfanyl-8-pyrrolidin-1-yl-9H-purine]"

# System: not given
# Experiment: not given
# Conditions: not given
row,melting point [°C],Compound
1,150 to 151,"O=[N+]([O-])c1ccc(CSc2ncnc3c2nc(NC2CCCC2)n3Cc2ccccc2)cc1 [Example 14, 9-benzyl-8-(cyclopentylamine)-6-(4-nitrobenzyl)-mercaptopurine]"
2,66 to 68,"O=[N+]([O-])c1ccc(CSc2ncnc3c2nc(NC2CCCCC2)n3Cc2ccccc2)cc1 [Example 15, 9-benzyl-8-(cyclohexylamine)-6-(4-nitrobenzyl)-mercaptopurine]"

# Molecular target: T1, Nucleoside Transporter
# Experiment: radioligand binding assay with [3H]NBTI on human erythrocyte membranes
# Conditions: [[…] 1.5 nM, test concentration not printed (footnote c missing)
row,Compound,Binding Nucleoside Transporter (value printed as % in the Ki column) [%^c]
1,OC[C@H]1O[C@@H](n2c(N3CCOCC3)nc3c(SCc4ccccc4)ncnc32)[C@H](O)[C@@H]1O [Example 13],33

# Molecular target: T1, Nucleoside Transporter
# Experiment: not given
# Conditions: pH 7.4
row,Compound,Ki [nM]
1,9-benzyl-6-(4-nitrobenzyl)-8-pyrrolidino-mercaptopurine [Example 16],1520
2,"CCNc1nc2c(SCc3ccccc3)ncnc2n1[C@@H]1O[C@H](CO)[C@@H](O)[C@H]1O [Example 2, 6-benzyl-8-ethylamino-thioinosine]",9.5
3,"OC[C@H]1O[C@@H](n2c(N3CCCC3)nc3c(SCc4ccccc4)ncnc32)[C@H](O)[C@@H]1O [Example 11, 6-benzyl-8-pyrrolidino-thioinosine]",410
4,"OC[C@H]1O[C@@H](n2c(N3CCCCC3)nc3c(SCc4ccccc4)ncnc32)[C@H](O)[C@@H]1O [Example 12, 6-benzyl-8-piperidino-thioinosine]",744
5,"O=[N+]([O-])c1ccc(CSc2ncnc3c2nc(NC2CCCC2)n3Cc2ccccc2)cc1 [Example 14, 9-benzyl-8-(cyclopentylamine)-6-(4-nitrobenzyl)-mercaptopurine]",29
6,"O=[N+]([O-])c1ccc(CSc2ncnc3c2nc(NC2CCCCC2)n3Cc2ccccc2)cc1 [Example 15, 9-benzyl-8-(cyclohexylamine)-6-(4-nitrobenzyl)-mercaptopurine]",55

# Second part, the compound after the results:
row,Ki [nM],Compound
1,5.4,6-benzyl-8-(n-butylamino)-thioinosine [Example 4]
2,5.3,"CCCNc1nc2c(SCc3ccccc3)ncnc2n1[C@@H]1O[C@H](CO)[C@@H](O)[C@H]1O [Example 3, 6-benzyl-8-(n-propylamino)-thioinosine]"
3,3.6,"CCC(C)CNc1nc2c(SCc3ccccc3)ncnc2n1[C@@H]1O[C@H](CO)[C@@H](O)[C@H]1O (stereo partly shown) [Example 7, 6-benzyl-8-[(2-methyl-butyl)-amino]-thioinosine]"
4,3,"OC[C@H]1O[C@@H](n2c(NC3CC3)nc3c(SCc4ccccc4)ncnc32)[C@H](O)[C@@H]1O [Example 8, 6-benzyl-8-(cyclopropylamino)-thioinosine]"
5,2.3,6-benzyl-8-(n-pentylamino)-thioinosine [Example 5]
6,0.94,6-benzyl-8-(cyclohexylamino)-thioinosine [Example 10]
7,0.64,"OC[C@H]1O[C@@H](n2c(NC3CCCC3)nc3c(SCc4ccccc4)ncnc32)[C@H](O)[C@@H]1O [Example 9, 6-benzyl-8-(cyclopentylamino)-thioinosine]"
